What was measured:
[1] = test system: thymus weight in rats; experiment: Thymus inhibition testing (subcutaneous administration); assay type: in vivo, rat; settings: Table VIII, 10 mg/kg/day s.c., three days
Experimental: Several further studies were undertaken to determine the effects of selected compounds of the invention on thymi weights in rats when the drugs were systemically administered. In each of these studies, male Sprague-Dawley rats were used. […] On the fifth day (48 hours following the last treatment), the animals were sacrificed and the thymi weights were recorded. […] It is evident that the higher the inhibition of thymus activity at a given dose, the more toxic the compound is.

[2] = test system: granulation tissue formation caused by implantation of cotton pellets; experiment: Granuloma formation test (local cotton pellet granuloma assay); assay type: in vivo, rat; settings: for Relative potency (ED40) / Relative potency (ED60): chloromethyl 11β-hydroxy-17α-isopropoxycarbonyloxyandrost-4-en-3-one-17β-carboxylate = 1; for ED40: dose causing 40% inhibition of granulation tissue weight; for ED50: dose causing 50% inhibition of granulation tissue weight; for ED60: dose causing 60% inhibition of granulation tissue weight
Experimental: The test compound was dissolved in acetone and aliquots of varying concentrations were injected into cotton pellets. The pellets were dried and then one pellet was implanted beneath the skin of each test rat. Six days later, the animals were sacrificed and the granulation tissue (granuloma) which formed in and around the implanted pellet was removed, dried and weighed. In addition, the thymi and adrenals were removed and weighed.

`CC(C)OC(=O)O[C@]1(C(=O)OCCl)[C@@H](C)C[C@H]2[C@@H]3CCC4=CC(=O)C=C[C@]4(C)[C@@]3(F)[C@@H](O)C[C@@]21C` [chloromethyl 9α-fluoro-11β-hydroxy-17α-isopropoxycarbonyloxy-16β-methylandrosta-1,4-dien-3-one-17β-carboxylate] was tested, and the Body weight gain [1] was 5.3 ± 1.4 g, the Thymus wt. [1] was 260 ± 26 mg and the “Thymus wt. Inhibition” value [1] was 52.7%. The Body wt. gain ([2]; Table IV, 1 μg/pellet) was 33.0 ± 1.7 g, the “Granulation tissue Dry wt.” value ([2]; Table IV, 1 μg/pellet) was 44.4 ± 5.4 mg and the “Granulation tissue Dry wt. Inhibition” value ([2]; Table IV, 1 μg/pellet) was 45.3%. For the same compound, the “Granulation tissue Wet wt.” value ([2]; Table IV, 1 μg/pellet) was 423 ± 19 mg, the “Granulation tissue Wet wt. Inhibition” value ([2]; Table IV, 1 μg/pellet) was 25.3% and the Thymus wt. ([2]; Table IV, 1 μg/pellet) was 526 ± 30 mg. The Body wt. gain ([2]; Table IV, 3 μg/pellet) was 30.4 ± 1.1 g, the “Granulation tissue Dry wt.” value ([2]; Table IV, 3 μg/pellet) was 26.9 ± 4.4 mg and the “Granulation tissue Dry wt. Inhibition” value ([2]; Table IV, 3 μg/pellet) was 66.9%. The “Granulation tissue Wet wt.” value ([2]; Table IV, 3 μg/pellet) was 351 ± 19 mg, the “Granulation tissue Wet wt. Inhibition” value ([2]; Table IV, 3 μg/pellet) was 38.0% and the Thymus wt. ([2]; Table IV, 3 μg/pellet) was 471 ± 20 mg. The Body wt. gain ([2]; Table IV, 10 μg/pellet) was 33.0 ± 1.5 g, the “Granulation tissue Dry wt.” value ([2]; Table IV, 10 μg/pellet) was 29.9 ± 3.3 mg and the “Granulation tissue Dry wt. Inhibition” value ([2]; Table IV, 10 μg/pellet) was 63.2%. For the same compound, the “Granulation tissue Wet wt.” value ([2]; Table IV, 10 μg/pellet) was 362 ± 8 mg, the “Granulation tissue Wet wt. Inhibition” value ([2]; Table IV, 10 μg/pellet) was 36.0% and the Thymus wt. ([2]; Table IV, 10 μg/pellet) was 474 ± 25 mg. For the same compound, the Body wt. gain ([2]; Table IV, 30 μg/pellet) was 31.8 ± 1.7 g, the “Granulation tissue Dry wt.” value ([2]; Table IV, 30 μg/pellet) was 19.9 ± 2.3 mg and the “Granulation tissue Dry wt. Inhibition” value ([2]; Table IV, 30 μg/pellet) was 75.5%. For the same compound, the “Granulation tissue Wet wt.” value ([2]; Table IV, 30 μg/pellet) was 315 ± 12 mg, the “Granulation tissue Wet wt. Inhibition” value ([2]; Table IV, 30 μg/pellet) was 44.3% and the Thymus wt. ([2]; Table IV, 30 μg/pellet) was 489 ± 26 mg. For the same compound, the “Relative potency (ED40)” value [2] was 1228, the “Relative potency (ED60)” value [2] was 184 and the ED40 [2] was 0.25 μg/pellet. The ED50 [2] was 0.97 μg/pellet and the ED60 [2] was 3.75 μg/pellet.
With `CCCOC(=O)O[C@]1(C(=O)OCCl)[C@H](C)C[C@H]2[C@@H]3CCC4=CC(=O)C=C[C@]4(C)[C@@]3(F)[C@@H](O)C[C@@]21C` [chloromethyl 9α-fluoro-11β-hydroxy-16α-methyl-17α-propoxycarbonyloxyandrosta-1,4-dien-3-one-17β-carboxylate] the Body weight gain [1] was 2.7 ± 1.7 g, the Thymus wt. [1] was 277 ± 25 mg and the “Thymus wt. Inhibition” value [1] was 49.6%. The Body wt. gain ([2]; Table V-a, 0.3 μg/pellet) was 35.6 ± 1.0 g, the “Granulation tissue Dry wt.” value ([2]; Table V-a, 0.3 μg/pellet) was 55.1 ± 6.2 mg and the “Granulation tissue Dry wt. Inhibition” value ([2]; Table V-a, 0.3 μg/pellet) was 31.2%. For the same compound, the “Granulation tissue Wet wt.” value ([2]; Table V-a, 0.3 μg/pellet) was 454 ± 27 mg, the “Granulation tissue Wet wt. Inhibition” value ([2]; Table V-a, 0.3 μg/pellet) was 13.5% and the Thymus wt. ([2]; Table V-a, 0.3 μg/pellet) was 523 ± 28 mg. The Body wt. gain ([2]; Table V-a, 1 μg/pellet) was 31.9 ± 0.8 g, the “Granulation tissue Dry wt.” value ([2]; Table V-a, 1 μg/pellet) was 42.9 ± 5.1 mg and the “Granulation tissue Dry wt. Inhibition” value ([2]; Table V-a, 1 μg/pellet) was 46.4%. For the same compound, the “Granulation tissue Wet wt.” value ([2]; Table V-a, 1 μg/pellet) was 415 ± 30 mg, the “Granulation tissue Wet wt. Inhibition” value ([2]; Table V-a, 1 μg/pellet) was 21.0% and the Thymus wt. ([2]; Table V-a, 1 μg/pellet) was 453 ± 21 mg. For the same compound, the Body wt. gain ([2]; Table V-a, 3 μg/pellet) was 34.1 ± 1.9 g, the “Granulation tissue Dry wt.” value ([2]; Table V-a, 3 μg/pellet) was 29.7 ± 3.2 mg and the “Granulation tissue Dry wt. Inhibition” value ([2]; Table V-a, 3 μg/pellet) was 62.9%. The “Granulation tissue Wet wt.” value ([2]; Table V-a, 3 μg/pellet) was 360 ± 18 mg, the “Granulation tissue Wet wt. Inhibition” value ([2]; Table V-a, 3 μg/pellet) was 31.4% and the Thymus wt. ([2]; Table V-a, 3 μg/pellet) was 504 ± 42 mg. The Body wt. gain ([2]; Table V-a, 10 μg/pellet) was 33.1 ± 1.6 g, the “Granulation tissue Dry wt.” value ([2]; Table V-a, 10 μg/pellet) was 28.5 ± 2.8 mg and the “Granulation tissue Dry wt. Inhibition” value ([2]; Table V-a, 10 μg/pellet) was 64.4%. The “Granulation tissue Wet wt.” value ([2]; Table V-a, 10 μg/pellet) was 350 ± 13 mg, the “Granulation tissue Wet wt. Inhibition” value ([2]; Table V-a, 10 μg/pellet) was 33.3% and the Thymus wt. ([2]; Table V-a, 10 μg/pellet) was 547 ± 26 mg. For the same compound, the “Relative potency (ED40)” value [2] was 529, the “Relative potency (ED60)” value [2] was 277 and the ED40 [2] was 0.58 μg/pellet. It also gave an ED50 [2] of 1.20 μg/pellet and an ED60 [2] of 2.49 μg/pellet.
